Measurements: patent US20260041680A1, “METHODS OF TREATING CANCER WITH LONG-ACTING TOPOISOMERASE I INHIBITOR” (priority 2022, published 2026)
Where two headings read alike, the source gives them in different places.

Tests used:
[1] = test system: H460 human lung cancer xenograft
[2] = test system: H446 human small cell lung cancer xenograft
[3] = test system: Panc-1 human pancreatic cancer xenograft
[4] = test system: HT-29 human colon cancer xenograft; assay: HT-29 human colon cancer xenograft, antitumor activity and tolerability; assay type: in vivo, nude rat
[5] = test system: HCT116 human colon cancer xenograft
[6] = test system: NCI-N87 human gastric cancer xenograft
[7] = test system: MKN45 human gastric cancer xenograft
[8] = SN-38 formed from CPT-11; evident from high SN-38G/SN-38; cited from earlier work
[9] = in vivo, po
[10] = pegamotecan; cited from earlier work
[11] = cisplatin IP 5 mg/kg once a week for 2 weeks
[12] = PLX038 200 mg/kg, irinotecan 60 mg/kg, IV once a week for 2 weeks
[13] = irinotecan 60 mg/kg IV once a week for 2 weeks
[14] = PLX038 200 mg/kg IV once a week for 2 weeks
[15] = PLX038 IV 200 mg/kg once a week for 2 weeks

N.N.[Cl][Pt][Cl] [cisplatin]
TGI [1, 11]: 33%
TGI [2, 11]: 36.1%

Nc1ccn([C@@H]2O[C@H](CO)[C@@H](O)C2(F)F)c(=O)n1 [gemcitabine]
TGI ([3]; gemcitabine IP 50 mg/kg once a week for 2 weeks): 32.5%

CCc1c2c(nc3ccc(OC(=O)N4CCC(N5CCCCC5)CC4)cc13)-c1cc3c(c(=O)n1C2)COC(=O)[C@]3(O)CC [irinotecan]
tumor growth inhibition (TGI) ([4]; irinotecan 70/50 mg/kg IV once a week for 2 weeks): 45%
loss in body weight ([4]; irinotecan at 70 mg/kg IV (second dose lowered to 50 mg/kg)): 16%
tolerability [5, 12]: well tolerated
TGI [5, 13]: 65.4%
tolerability [6, 12]: well-tolerated
TGI [6, 13]: 57.8%
tolerability [7, 12]: well-tolerated
TGI [7, 13]: 45.6%
liver/GI exposure of SN-38 [8]: high

CNCc1ccc(-c2[nH]c3cc(F)cc4c3c2CCNC4=O)cc1 [rucaparib]
rucaparib pre-dose (trough) concentrations at steady state [9]: reasonably consistent with prior data

O-[7-(tetra-polyethylene glycol ether)-carboxamido-1-cyano-2-heptyl]-N-(10′-methoxy-7′-ethyl-camptothecin)-N-[4′-(diethylcarbamoyl)phenyl)] carbamate [PLX038]
tumor growth inhibition (TGI) ([4]; PLX038 50 mg/kg IV once a week for 2 weeks): 13%
tumor growth inhibition (TGI) ([4]; PLX038 100 mg/kg IV once a week for 2 weeks): 35%
tumor growth inhibition (TGI) [4, 14]: 61%
TGI [5, 14]: 46.6%
TGI [1, 15]: 30%
TGI [6, 14]: 34.4%
TGI [7, 14]: 59.0%
TGI [3, 15]: 73.1%
TGI [2, 15]: 41.0%

pegamotecan
maximum tolerated dose (MTD) [10]: 3.24 g/m^2
